Laboratory results from patent US20090062400A1 (priority 2007, published 2009).

Tests used:
retinal ganglion cells [1] = settings: adult rats, rasagiline before intravitreal SSP
Procedure: The effect of rasagiline on RGC survival is tested in a rat model of RGC survival.
In this well-established model it is used to induce apoptosis of retinal ganglion cells.
Adult rats are used in all rat experiments.
Rats receive a dose of intravitreal SSP in PBS. Animals are imaged immediately and up to 6 h, after which they are sacrificed for histology.
To examine the effect of rasagiline on the survival of RGCs, one group of rats are treated with rasagiline for a period of time before SSP. A further group of naïve rats receives no rasagiline.
The animal is positioned before the cLSO so that the interior of the eye is imaged. An Argon laser wavelength of 488 nm is focused into a small spot and scanned across the retina by a pair of mirrors to excite the administered annexin 5-bound fluorophore. The fluorescence is detected by a solid-state photodetector.
For imaging, animals are held in a stereotaxic frame and their pupils dilated. Videos of scanned retinal areas are assessed for fluorescence. All animals have baseline images recorded before receiving intravitreal injections of Alexa Fluor 488-labeled annexin-5. […]
Fluorescent retinas are assessed by using a confocal laser scanning microscope.
The number of stained RGC and annexin 5-labeled apoptotic RGCs are counted with microscopy analysis software.

[2] = system: retinal ganglion cells (RGCs); settings: Lewis rats, subcutaneous injection, single or repeated (treatment and prevention protocols)
[3] = system: retinal ganglion cells (RGCs); settings: Long Evans rats, IP 30 minutes before and 2 hours after ischemia, then once daily
Procedure: Thirty (30) male pigmented rats (Long Evans) are obtained and divided evenly into 3 groups, (2 test groups and 1 control group) 10 animals in each group. Retinal ischemia is induced by a 100/200-mmHg hyperpressure saline column applied to the eye through a needle for 60 minutes.
For the control group, the vehicle (saline solution) is administered IP 30 minutes before ischemia and 2 hours after ischemia.
Electroretinographic (ERG) measurements of a- and b-wave implicit times and peak amplitudes under scotopic conditions at maximal intensity are taken at baseline (just before ischemia), and 4-7 days after reperfusion.
Sampling of fixed flatmount retinas and histological processing for annexin-5 labeling or TUNEL labeling.

[4] = rasagiline alone; cited from earlier work
[5] = rats
Procedure: Rats were sacrificed 2-3 hours after last administration. According to preliminary experiment, in order to obtain enough substance for MAO and protein analysis, 4 retinas (from 2 rats) were combined into one sample, (3 retina samples for MAO per each dose groups). The 6 brains and 6 livers were analyzed separately.

retinal ganglion cells [6] = settings: Wistar rats, 0.5 and 3 mg/kg IP once daily, 6 weeks
Procedure: Male Wistar rats weighing 375-400 gm are treated under procedures approved and monitored by the Animal Care Committee of the Tel-Aviv University School of Medicine and following the procedures outlined in the Association for Research in Vision and Opthalmology Statement for the use of animals in ophthalmic and vision research. Animals are housed with a 14 hour light/10 hour dark cycle with standard chow and water ad libitum.
Glaucoma is induced in one eye of rats by using the translimbal laser photocoagulation model developed by Levkovitch-Verbin. This model can produce elevated IOP and typical glaucomatous optic nerve damage in most treated eyes.
In this model, the outflow channels of the rat eye are treated by argon laser at 532 nm. […] IOP is measured with Tonopen XL under the above anaesthesia in both eyes before and immediately after laser treatment and weekly thereafter. Each time ten measurements are obtained on each eye and the mean value is calculated. […]
The volume of administration is 2 ml/kg. […] (calculated for a rat weighing 400 g). […]
Thirty-two (32) images of ×40 magnification from each retina (both eyes for each rat) are photographed using a fluorescent microscope, and the number of surviving retinal ganglion cells are counted for each eye. The number of RGCs in the experimental eye are compared to the fellow control eye to calculated the RGC loss. […]

retinal ganglion cells [7] = settings: rats, rasagiline in the drinking water
Description: Chronic, moderately elevated IOP is produced unilaterally by cautery of three episcleral vessels; the contralateral eye served as the control. To perform the cautery, sutures are placed in the lids to keep the eye open and in the bulbar conjunctiva to manipulate the globe. Three of the four to five major trunks formed by limbal-derived veins are exposed at the equator of the eye by incising the conjunctiva. Each vessel is lifted with a small muscle hook and cauterized by direct application of an ophthalmic, disposable cautery against the muscle hook. Immediate retraction and absence of bleeding of the cauterized ends of the vessels are noted as successful cauterization. After surgery, eyes are treated topically with bacitracin-neomycin-polymyxin for a few days during recovery.
One group is treated with rasagiline, in the drinking water, for a period of time. Another group is not treated with rasagiline, but receives drinking water on the same schedule. Once a month, each animal is anesthetized and IOP is determined bilaterally. The animals are awake within 15 minutes of the IOP measurement. On any given eye, three to five tonometer readings are taken and averaged. […]
Labeled retinal ganglion cells are counted using fluorescence microscopy in 12 fields of the retina.

[8] = patients with glaucomatous optic neuropathy, vs placebo
[9] = double-blind, placebo-controlled trial; cited from earlier work
[10] = retinal degeneration slow mouse; cited from earlier work

C#CCN[C@@H]1CCc2ccccc21 [Rasagiline, R(+)—N-propargyl-1-aminoindan]
effect in the SSP model (RGC apoptosis) (retinal ganglion cells [1]): positive effect
effect in the IOP model (RGC survival) [2]: positive effect
recovery of the retinal electric activity and/or number of apoptotic RGCs after transient ischemia [3]: positive effect
effectiveness in the ALS mouse model [4]: effective treatment
irritation to the eye ([5]; preliminary test performed for 2 days, eye drops): did not cause irritation to the eye
absorption after intraocular administration ([5]; eye drops 0.0165-7.9 mg/kg/day, 10 days): absorbed in all doses
effect in the experimental glaucoma model (retinal ganglion cells [6]): positive effect
ganglion survival in the treated group (retinal ganglion cells [6]): More ganglion survival
effect in the chronic, moderately elevated IOP model (RGC survival) (retinal ganglion cells [7]): positive effect
atrophy of the optic nerve [8]: reduced atrophy
preservation of the retina and of the structural integrity of the optic nerve [8]: increased preservation
protection against loss of RGCs [8]: increased protection
visual field loss [8]: reduced visual field loss

C#CCN(C)[C@H](C)Cc1ccccc1 [Selegiline]
effectiveness in treating ALS [9]: ineffective

C[C@]12C=CC(=O)C=C1CC[C@@H]1[C@@H]2[C@@H](O)C[C@@]2(C)[C@H]1CC[C@]2(O)C(=O)CO [prednisolone]
effect on retinal degeneration [10]: unsuccessful
